Laboratory results as given in ChEMBL document CHEMBL1201862, “PubChem BioAssay data set” (2004).
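1) Cells in 96-well plates. 2) Compound, 48 h, 5 concentrations. 3) Linear interpolation between surrounding doses. 4) Unreached endpoint = highest concentration. The concentration for 50% growth inhibition is given as GI50.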 Calls of active or inactive are those of the source. No stated cut-off is given here; in the data, active = GI50 up to about 1.1 µM and inactive = higher.

Key:
Assay in all cases: growth of human tumour cells (NCI), 48 h
LOX IMVI = tested on: LOX IMVI
A498 = tested on: A498
UO-31 = tested on: UO-31
MDA-N = tested on: MDA-N
HOP-62 = tested on: HOP-62
NCI/ADR-RES = tested on: NCI/ADR-RES
HCT-116 = tested on: HCT-116
K562 = tested on: K562
OVCAR-5 = tested on: OVCAR-5
CCRF-CEM = tested on: CCRF-CEM
OVCAR-4 = tested on: OVCAR-4
T47D = tested on: T47D
SK-MEL-2 = tested on: SK-MEL-2
UACC-62 = tested on: UACC-62
Malme-3M = tested on: Malme-3M
M14 = tested on: M14
SK-MEL-28 = tested on: SK-MEL-28
HCT-15 = tested on: HCT-15
TK-10 = tested on: TK-10
SF-539 = tested on: SF-539

| SMILES | GI50 (LOX IMVI) | GI50 (A498) | GI50 (UO-31) | GI50 (MDA-N) | GI50 (HOP-62) | GI50 (NCI/ADR-RES) | GI50 (HCT-116) | GI50 (K562) | GI50 (OVCAR-5) | GI50 (CCRF-CEM) | GI50 (OVCAR-4) | GI50 (T47D) | GI50 (SK-MEL-2) | GI50 (UACC-62) | GI50 (Malme-3M) | GI50 (M14) | GI50 (SK-MEL-28) | GI50 (HCT-15) [µM] | GI50 (TK-10) | GI50 (SF-539) |
| --- | --- | --- | --- | --- | --- | --- | --- | --- | --- | --- | --- | --- | --- | --- | --- | --- | --- | --- | --- | --- |
| CC(C)CC(=O)CC(O)C(Cl)(Cl)Cl (stereo not drawn) | > 100 µM (inactive) | > 100 µM (inactive) | > 100 µM (inactive) | > 100 µM (inactive) | > 100 µM (inactive) | > 100 µM (inactive) | > 100 µM (inactive) | > 100 µM (inactive) | > 100 µM (inactive) | > 100 µM (inactive) | > 100 µM (inactive) | > 100 µM (inactive) | > 100 µM (inactive) | > 100 µM (inactive) | 20.7 µM (inactive) | > 100 µM (inactive) | > 100 µM (inactive) | > 100 | > 100 µM (inactive) | – |
| O=C1c2ccccc2-c2ccc(/N=[N+](/[O-])c3ccc4c(c3)C(=O)c3ccccc3-4)cc21 | > 100 µM (inactive) | > 100 µM (inactive) | > 100 µM (inactive) | > 100 µM (inactive) | 71.4 µM (inactive) | > 100 µM (inactive) | > 100 µM (inactive) | > 100 µM (inactive) | > 100 µM (inactive) | > 100 µM (inactive) | > 100 µM (inactive) | > 100 µM (inactive) | > 100 µM (inactive) | > 100 µM (inactive) | > 100 µM (inactive) | > 100 µM (inactive) | > 100 µM (inactive) | > 100 | > 100 µM (inactive) | – |
| O=C(Oc1cc(=O)c(OC(=O)c2ccccc2)co1)c1ccccc1 | 36.9 µM (inactive) | > 100 µM (inactive) | > 100 µM (inactive) | > 100 µM (inactive) | 80 µM (inactive) | 83.2 µM (inactive) | 65 µM (inactive) | – | > 100 µM (inactive) | – | 95.7 µM (inactive) | 65.3 µM (inactive) | > 100 µM (inactive) | > 100 µM (inactive) | 25.3 µM (inactive) | > 100 µM (inactive) | 55.6 µM (inactive) | 42.6 | > 100 µM (inactive) | 46.5 µM (inactive) |
| CC1=NCC[N+]1(CCc1ccccc1)Cc1ccccc1 (stereo not drawn) | 44.9 µM (inactive) | 60.3 µM (inactive) | > 100 µM (inactive) | 46.3 µM (inactive) | > 100 µM (inactive) | > 100 µM (inactive) | 49 µM (inactive) | 2.94 µM (inactive) | 47.4 µM (inactive) | 34.5 µM (inactive) | 37.2 µM (inactive) | > 100 µM (inactive) | 27.7 µM (inactive) | 75.2 µM (inactive) | 20.4 µM (inactive) | 50.5 µM (inactive) | 64.6 µM (inactive) | > 100 | 48.1 µM (inactive) | – |
| Cc1nc(N)c(N2CCN([N+](=O)[O-])CC2)c(O)n1 | > 100 µM (inactive) | > 100 µM (inactive) | > 100 µM (inactive) | > 100 µM (inactive) | > 100 µM (inactive) | > 100 µM (inactive) | > 100 µM (inactive) | > 100 µM (inactive) | > 100 µM (inactive) | > 100 µM (inactive) | > 100 µM (inactive) | > 100 µM (inactive) | > 100 µM (inactive) | – | > 100 µM (inactive) | > 100 µM (inactive) | > 100 µM (inactive) | > 100 | > 100 µM (inactive) | > 100 µM (inactive) |
| C=C(C)[C@@H]1CCC2=C[C@@H](OC2=O)[C@@H](C(=C)C)C2=CC(C(=O)O)=C(C1)O2 | 42 µM (inactive) | > 100 µM (inactive) | 26 µM (inactive) | > 100 µM (inactive) | > 100 µM (inactive) | > 100 µM (inactive) | 60.4 µM (inactive) | 41 µM (inactive) | > 100 µM (inactive) | 38.7 µM (inactive) | > 100 µM (inactive) | 59.2 µM (inactive) | > 100 µM (inactive) | > 100 µM (inactive) | > 100 µM (inactive) | > 100 µM (inactive) | – | > 100 | > 100 µM (inactive) | > 100 µM (inactive) |
| O=C1[C@@H](O)[C@@H]2CCCC[C@@]23CCCN13 | > 100 µM (inactive) | > 100 µM (inactive) | > 100 µM (inactive) | > 100 µM (inactive) | > 100 µM (inactive) | > 100 µM (inactive) | > 100 µM (inactive) | > 100 µM (inactive) | > 100 µM (inactive) | > 100 µM (inactive) | > 100 µM (inactive) | > 100 µM (inactive) | > 100 µM (inactive) | > 100 µM (inactive) | > 100 µM (inactive) | > 100 µM (inactive) | > 100 µM (inactive) | > 100 | > 100 µM (inactive) | – |
| O=C1O[C@H]2[C@H](OC(=O)c3cc(O)c(O)c(O)c3)[C@@H](OC(=O)c3cc(O)c(O)c4c3[C@@H]3C1=CC(=O)C(O)(O)C3(O)O4)[C@H](OC(=O)c1cc(O)c(O)c(O)c1)O[C@@H]2COC(=O)c1cc(O)c(O)c(O)c1 (stereo partly drawn) [TERCHEBIN] | 25.1 µM (inactive) | > 100 µM (inactive) | 18.5 µM (inactive) | 53.5 µM (inactive) | 99.3 µM (inactive) | 53.2 µM (inactive) | 33 µM (inactive) | 31.9 µM (inactive) | 65.6 µM (inactive) | 23 µM (inactive) | 32.9 µM (inactive) | 54.7 µM (inactive) | > 100 µM (inactive) | 50.6 µM (inactive) | > 100 µM (inactive) | 60.7 µM (inactive) | > 100 µM (inactive) | 36.6 | – | – |
| CCOC(=O)C(=CNc1ccc(F)c(F)c1)C(=O)OCC | > 100 µM (inactive) | > 100 µM (inactive) | 55.3 µM (inactive) | 93.1 µM (inactive) | > 100 µM (inactive) | > 100 µM (inactive) | > 100 µM (inactive) | 39.4 µM (inactive) | > 100 µM (inactive) | 54.5 µM (inactive) | 95.3 µM (inactive) | 69.7 µM (inactive) | > 100 µM (inactive) | – | > 100 µM (inactive) | > 100 µM (inactive) | > 100 µM (inactive) | 88.3 | > 100 µM (inactive) | > 100 µM (inactive) |
| CN(C(=O)C12C3C4(C(=O)O)C1(C(=O)N(C)C(C)(C)C)C1C2(C(=O)O)C3(C(=O)N(C)C(C)(C)C)C14C(=O)N(C)C(C)(C)C)C(C)(C)C (stereo not drawn) | > 100 µM (inactive) | > 100 µM (inactive) | > 100 µM (inactive) | > 100 µM (inactive) | > 100 µM (inactive) | > 100 µM (inactive) | > 100 µM (inactive) | > 100 µM (inactive) | > 100 µM (inactive) | > 100 µM (inactive) | > 100 µM (inactive) | > 100 µM (inactive) | > 100 µM (inactive) | > 100 µM (inactive) | – | > 100 µM (inactive) | > 100 µM (inactive) | > 100 | > 100 µM (inactive) | > 100 µM (inactive) |
